Test results: patent publication US20030171276A1, “Preventives and remedies for chronic hepatitis” (priority 1999, published 2003)

Tested on: recombinant E2 protein binding to CD81 expressed in Jurkat cells
Experiment: Inhibition of binding of recombinant E2 protein to Jurkat cells (FACScan)
Type: cell-based, HCV
Conditions: 1 μg recombinant E2 protein preincubated with 10 μL of 1 mg/mL solution, room temperature 1 hour; FIG. 14
Protocol: An oligopeptide capable of binding to HCV E2 antigen is reacted with the HCV E2 antigen to study whether or not binding of CD81 expressed in Jurkat cells purchased from DAINIPPON PHARMACEUTICAL CO., LTD. to the HCV E2 antigen is inhibited. By the study, whether or not the selected oligopeptide inhibits adhesion of the HCV E2 antigen to CD81-positive cells can be estimated. The inhibitory activity for adhesion of CD81 to the IICV E2 antigen was assayed in accordance with the literature. The concrete description will be given hereinbelow.
The Jurkat cells were prepared in the same manner as in item (1), and suspended in WB so as to have a concentration of 4×10^6 cells/mL, to give a Jurkat cell suspension. […]
Hereinafter, in the same manner as in the item (1) above, the resulting product was reacted with an FITC-labeled anti-mouse IgG1 antibody, and thereafter the reaction mixture was suspended in 0.2 mL of a 10% neutral buffered formalin solution. As to the resulting product, E2 protein bound to Jurkat cells was analyzed by using FACScan.
One microgram of the recombinant E2 protein, and 10 μL of the TAPA148, bLF or bLF443 solution obtained in item (4) above were added to a 6 mm rounded-bottom tube and, and WB was then added thereto, to give 50 μL of a mixture. […] As to the resulting suspension, E2 protein bound to Jurkat cells was analyzed by using FACScan.

Substance: TAPA148: Human CD81-derived peptide, SEQ ID NO: 23 (TFHETLDCCGSSTLTALTTSVLKNNLCPSGSNIISNLFKTDCHQKIDDLTSGK; Synthesized peptide TAPA148 which is derived from human CD81)
- inhibitory action of binding of E2 protein to Jurkat cells: inhibitory action of binding of E2 protein

Substance: bLF443: Bovine lactoferrin-derived peptide, SEQ ID NO: 24 (LDCVLRPTEGYLAVAVVKKANEGLTWNSLKDKKSCH; Synthesized peptide bLF443 which is derived from bovine lactoferrin)
- inhibitory action of binding of E2 protein to Jurkat cells: inhibitory action of binding of the E2 protein
